Consider one compound from patent US20230002346A1, “NEW COMPOUNDS AND METHODS” (BenevolentAl Bio Limited, priority 2019, published 2023).

A short description of data set [1]: Rat PK profile (bioavailability, clearance, half-life). To be noted: male, Sprague Dawley, plasma, i.v. dose 1 mg/kg. Format: in vivo. The method, then: Male Sprague Dawley Rats 300-350 g (Charles River, UK) were group housed, n=3, under a 12 h light/dark cycle with food and water available ad libitum. At 17:00 on the day prior to dosing all food was removed. On the day of dosing animals were weighed, tail marked and dosed via oral gavage with compound at 3 mg/kg in a volume of 5 mL/kg. Animals were culled at 30 min, 1 h and 4 h post dose via intra-peritoneal administration of pentobarbital. Post mortem blood was withdrawn via cardiac puncture, and briefly stored in K2 EDTA blood tubes on ice before being spun at 14,000 g for 4 min at 4° C. Plasma was withdrawn into a 96 well plate, placed on dry ice and stored at −80° C. Brains were quickly dissected and placed on dry ice before storage at −80° C. Bioanalysis of plasma and brain samples is performed as detailed below. Methods were prepared with guidance from industry standard documents.^i,ii
A 10 mM DMSO stock is used to prepare spiking solutions of test compound in the range of 10-100,000 ng/mL in diluent (MeCN:water, 1;1). Calibration lines are prepared in control male Sprague-Dawley Rat plasma at known concentrations in the range of 1-10000 ng/mL by spiking 2.5 μL of calibration spiking solution into 25 μL control plasma. Experimental samples are thawed to RT and 25 μL aliquots are extracted alongside the calibration lines using protein precipitation (agitation for at least 5 min at RT with 400 μL of MeCN containing 25 ng/mL tolbutamide as an internal standard). Protein precipitates are separated from the extracted test compound by centrifugation at 4000 rpm for 5 min, 4° C. The resulting supernatants are diluted in a ratio of 1:2 with a relevant diluent (e.g. 0.1% formic acid in water or 1:1 MeOH:water). Samples are analysed by UPLC-MS/MS on either an API6500 QTrap or Waters 30 TQS mass spectrometer using previously optimised analytical MRM (multiple reaction monitoring) methods, specific to the test compound. The concentration of test compound in isolated samples is determined following analysis of the samples against the two replicates of the calibration line, injected before and after the sample set with an appropriate regression and weighting used. Only samples within 20% of the expected test concentration are included in the calibration line and any samples that fall outside of the limits of the calibration line will be deemed to be less than or above the limit of quantification (LLoQ/ALoQ).
Pharmacokinetic parameters such as bioavailability (% F), clearance (CL), half-life (T½) and volume of distribution are calculated by non-compartmental analysis using Phoenix Winnonlin 64 software (build 8.0). The bioavailability was calculated from p.o. dosed rats, whereas the clearance and half-life were calculated from i.v. dosed rats. Briefly, in vivo plasma concentrations, timepoints and dose values are imported into the software in a compatible format. Plasma concentration for each animal is plotted against time, and the elimination phase identified and selected. The area under the curve for each plot is calculated using a linear trapezoidal linear interpolation from which pharmacokinetic parameters can subsequently be determined. […] Compounds of the invention have much improved clearance (CL) and half-life (T½) compared to the reference examples.

The target of data set [2] is T1, hERG channel (Homo sapiens, UniProt Q12809).
T1 construct: expressed in transfected cells
The experiment in a line: hERG assay (QPatch automated patch clamp, CHO cells). The conditions noted are these: CHO cells expressing hERG, whole-cell patch clamp, 0.003 μM to 10 μM. In kind it is cell-based. The method in brief: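 Whole-cell QPatch recordings at room temperature on CHO cells stably expressing hERG, "+40/−40" protocol from −90 mV holding, 0.1 Hz. Eight cumulative concentrations (0.003–10 μM) on one cell after 0.1% DMSO vehicle; tail-current inhibition versus vehicle fitted to four-parameter logistic, Hill slopes 0.5–2.0 accepted; mean of N≥3 cells.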
Background: Block of hERG is tested as a sign of cardiac risk.

T1 sequence (Q12809 whole entry): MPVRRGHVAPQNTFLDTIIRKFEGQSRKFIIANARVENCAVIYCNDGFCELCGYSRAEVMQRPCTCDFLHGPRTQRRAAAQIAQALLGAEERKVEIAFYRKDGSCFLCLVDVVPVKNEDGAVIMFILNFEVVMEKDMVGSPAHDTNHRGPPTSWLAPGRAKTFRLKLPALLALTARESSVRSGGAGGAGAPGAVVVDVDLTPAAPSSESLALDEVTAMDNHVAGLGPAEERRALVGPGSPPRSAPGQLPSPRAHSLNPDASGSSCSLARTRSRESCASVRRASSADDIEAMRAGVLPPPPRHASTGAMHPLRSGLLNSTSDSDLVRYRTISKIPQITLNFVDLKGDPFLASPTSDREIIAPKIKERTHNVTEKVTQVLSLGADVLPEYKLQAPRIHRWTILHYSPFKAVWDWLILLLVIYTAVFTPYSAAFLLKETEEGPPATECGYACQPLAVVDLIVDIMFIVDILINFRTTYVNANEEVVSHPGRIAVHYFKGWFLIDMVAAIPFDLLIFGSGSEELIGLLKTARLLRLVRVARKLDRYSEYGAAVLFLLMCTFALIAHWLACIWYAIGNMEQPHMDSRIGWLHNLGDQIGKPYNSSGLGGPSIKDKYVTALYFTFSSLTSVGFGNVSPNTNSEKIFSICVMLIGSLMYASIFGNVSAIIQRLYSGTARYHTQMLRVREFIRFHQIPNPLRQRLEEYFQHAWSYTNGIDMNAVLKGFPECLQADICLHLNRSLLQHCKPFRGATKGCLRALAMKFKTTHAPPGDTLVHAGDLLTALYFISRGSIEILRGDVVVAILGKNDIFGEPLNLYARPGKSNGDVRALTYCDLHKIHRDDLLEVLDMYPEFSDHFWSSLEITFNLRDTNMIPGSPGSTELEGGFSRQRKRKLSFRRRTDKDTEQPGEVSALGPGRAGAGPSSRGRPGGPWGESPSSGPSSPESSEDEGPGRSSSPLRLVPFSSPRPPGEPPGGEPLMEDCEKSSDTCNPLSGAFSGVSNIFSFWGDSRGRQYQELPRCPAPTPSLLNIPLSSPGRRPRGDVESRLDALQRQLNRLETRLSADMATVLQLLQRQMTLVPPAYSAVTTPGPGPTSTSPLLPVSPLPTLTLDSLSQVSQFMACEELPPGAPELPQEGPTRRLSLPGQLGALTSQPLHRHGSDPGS

Turning to `O=C(Nc1ccc(OC(F)(F)Cl)cc1)c1ccc(=O)n(-c2ccccc2)c1` [Example 56, N-[4-[Chloro(difluoro)methoxy]phenyl]-6-oxo-1-phenyl-pyridine-3-carboxamide], in data set [1] (iv), the clearance – broadly, a measure of how efficiently the substance is removed, as volume per time – is 1.9 mL/min/kg. The half-life in data set [1] (iv, read-out: T½ (converted)) is 20 h. Further, in data set [1] (po, p.o. dose 3 mg/kg), the bioavailability (commonly dose-corrected exposure relative to a reference, in per cent) was found to be 97%. Also, the IC50 (usually the concentration needed to halve the response being measured) in data set [2] is over 10 µM.
